Laboratory results: patent US11578078B2, “Heterocyclic RIP1 inhibitory compounds” (Rigel Pharmaceuticals, Inc., priority 2019, dated 2023)

Experiment: in vivo pharmacokinetics, plasma and brain exposure
Design: species or system rodents

Compound | Ratio (Brain/Plasma) (brain AUC0-6 / plasma AUC0-6) | PLASMA CI | BRAIN AUC0-6 (brain) | Kp (rodents, brain AUC0-6 / plasma AUC0-6, read-out: Ratio (Brain/Plasma))
CN1C(=O)[C@@H](NC(=O)n2cc(Cc3ccc(F)cc3)cn2)COc2ccc(N3CC4(CCOCC4)C3)cc21 [Compound I-3, (S)-4-(4-fluorobenzyl)-N-(5-methyl-4-oxo-7-(7-oxa-2-azaspiro[3.5]nonan-2-yl)-2,3,4,5-tetrahydrobenzo[b][1,4]oxazepin-3-yl)-1H-pyrazole-1-carboxamide] | 0.93 | 19.0 | – | –
CN1C(=O)[C@@H](NC(=O)c2nn(Cc3ccccc3)cc2F)COc2ccc(N3CCC4(CCOCC4)C3)cc21 [Compound I-1, (S)-1-benzyl-4-fluoro-N-(5-methyl-4-oxo-7-(8-oxa-2-azaspiro[4.5]decan-2-yl)-2,3,4,5-tetrahydrobenzo[b][1,4]oxazepin-3-yl)-1H-pyrazole-3-carboxamide] | 0.46 | 16.4 | – | –
CN1C(=O)[C@@H](NC(=O)c2nn(Cc3ccccc3)cc2F)COc2ccc(N3CC4(CCOCC4)C3)cc21 [Compound I-2, (S)-1-benzyl-4-fluoro-N-(5-methyl-4-oxo-7-(7-oxa-2-azaspiro[3.5]nonan-2-yl)-2,3,4,5-tetrahydrobenzo[b][1,4]oxazepin-3-yl)-1H-pyrazole-3-carboxamide] | – | 57.7 | 157 | 0.56
